Counter-ions that a name gives are not always drawn.
Test system: imDAPs
Experiment: imDAP maturation, cell morphology and adhesion (bright-field)
Type: cell-based, human
Conditions: 10 μM Y27632; coating 1 μg/cm^2 for each; day 7
Procedure: were produced according to the method described in CN201910169525.0, and expanded as described in Example 10. The expanded […] were seeded on VTN-coated (1 μg/cm^2) plates at a density of 5×10^5 cells/cm^2 (Day 0), and cultured in the maturation medium ([…]) supplemented with 1 μM IWR1. MM-P used in Example 11 contained the following components: NeurobasalTM medium, 1% (v/v) Glutamax, 0.5 mM Db-cAMP sodium salt, 200 μM ascorbic acid, 20 ng/ml BDNF, 20 ng/ml GDNF, 1 ng/ml TGF-β3, 10 μM DAPT, hPLT (0.5%, 1%, 2%). MM-H used in Example 11 contained the following components: NeurobasalTM medium, 1% (v/v) Glutamax, 0.5 mM Db-cAMP sodium salt, 200 μM ascorbic acid, 20 ng/ml BDNF, 20 ng/ml GDNF, 1 ng/ml TGF-β3, […], HhPLT (0.5%, 1%, 2%). MM-B used in Example 11 contained the following components: Neurobasal, 1% (v/v) Glutamax, 0.5 mM Db-cAMP sodium salt, 200 μM ascorbic acid, 20 ng/ml BDNF, 20 ng/ml GDNF, 1 ng/ml TGF-β 3, 10 μM DAPT, 2% (v/v) B27 (50×) (as control). The above HhPLT was produced from hPLT as follows. The hPLT was centrifuged at 3000 g for 30 min at 4° C. to obtain the supernatant, which was heated to 56° C. for 30 min. […] Cells were collected and counted by Vi-cell cytometer. The cells were analyzed by RT-qPCR for EN1, LMX1A, FOXA2, NURR1, SOX6 and TH gene expression. […]

C[C@@H](N)[C@H]1CC[C@H](C(=O)Nc2ccncc2)CC1 [Y27632, (R)-(+)-trans-4-(1-aminoethyl)-N-(4-pyridyl) cyclohexanecarboxamide dihydrochloride]
cell adhesion and growth in maturation media supplemented with Y27632 (FIG. 8A): could promote cell adhesion at a certain degree

Source: patent US20240327787A1, “CULTURE MEDIUM, COATING MATRIX AND METHOD FOR EXPANDING MIDBRAIN DOPAMINERGIC PROGENITOR CELLS” (NUWACELL BIOTECHNOLOGIES CO., LTD., priority 2022, published 2024)
